Biological target: Protein farnesyltransferase (Homo sapiens, UniProt P49354+P49356)
Test: Inhibition of Protein farnesyltransferase in an enzyme assay with His6-H-Ras-CVLS

SMILES | IC50 [nM]
Cc1c[nH]c2c(Cl)cc3c(c12)[C@@H](C1CCN(C(=O)Cc2cc[n+]([O-])cc2)CC1)c1ncccc1CC3 (stereo in doubt; (+)-10a) | 7.4
CCCc1c[nH]c2c(Cl)cc3c(c12)[C@@H](C1CCN(C(=O)Cc2cc[n+]([O-])cc2)CC1)c1ncccc1CC3 (stereo in doubt; (-)-10b) | > 190
Cc1c[nH]c2c(Cl)cc3c(c12)[C@@H](C1CCN(C(=O)Cc2cc[n+]([O-])cc2)CC1)c1ncc(Br)cc1CC3 | 2.6
O=C(Cc1cc[n+]([O-])cc1)N1CCC([C@@H]2c3ccc(Cl)cc3CCc3cc(Br)cnc32)CC1 | 34
CCCCc1c[nH]c2c(Cl)cc3c(c12)[C@@H](C1CCN(C(=O)Cc2cc[n+]([O-])cc2)CC1)c1ncccc1CC3 (stereo in doubt; (+)-10c) | 69
O=C(Cc1cc[n+]([O-])cc1)N1CCC([C@H]2c3ncccc3CCc3cc(Cl)cc(Br)c32)CC1 | 19
CCCc1c[nH]c2c(Cl)cc3c(c12)[C@@H](C1CCN(C(=O)Cc2cc[n+]([O-])cc2)CC1)c1ncccc1CC3 (stereo in doubt; (+)-10b) | 65
Cc1cn(C)c2c(Cl)cc3c(c12)C(C1CCN(C(=O)Cc2cc[n+]([O-])cc2)CC1)c1ncccc1CC3 (single isomer, unassigned; (+)) | > 190
CCCCc1c[nH]c2c(Cl)cc3c(c12)[C@@H](C1CCN(C(=O)Cc2cc[n+]([O-])cc2)CC1)c1ncccc1CC3 (stereo in doubt; (-)-10c) | > 180
Cc1c[nH]c2c(Cl)cc3c(c12)[C@@H](C1CCN(C(=O)Cc2cc[n+]([O-])cc2)CC1)c1ncccc1CC3 (stereo in doubt; (-)-10a) | 28
O=C(Cc1cc[n+]([O-])cc1)N1CCC(C2c3ncccc3CCc3cc(Cl)c4[nH]ccc4c32)CC1 (single isomer, unassigned; (+)) | 42

From ChEMBL document CHEMBL1135759, “Exploring the role of bromine at C(10) of (+)-4-[2-[4-(8-chloro-3,10-dibromo- 6,11-dihydro-5H-benzo[5,6]cyclohepta[1,2-b]pyridin-11(R)-yl)-1-piperidinyl]-2- oxoethyl]-1-piperidinecarboxamide (Sch-66336): the discovery of indolocycloheptapyridine inhibitors of farnesyl protein transferase” (J Med Chem, 2002)
